In ChEMBL document CHEMBL5608172, “Structural modification strategies of triazoles in anticancer drug development” (Eur J Med Chem, 2024):

Columns and labels:
Detroit 562 = assay: Antiproliferative activity against human Detroit 562 cells; type: functional, cell-based
MCF7 [1] = assay: Antiproliferative activity against human MCF7 cells assessed as inhibition of cell growth measured after 72 hrs by MTT assay; type: functional, cell-based; settings: MCF7, 72 h
MCF7 [2] = assay: Anticancer activity against human MCF7 cells; type: functional, cell-based
A549 [3] = assay: Antiproliferative activity against human A549 cells assessed as reduction in cell viability incubated for 48 hrs by MTT assay; type: toxicity, cell-based; settings: A549, 48 h
[4] = Antiproliferative activity against human WS1 cells assessed as reduction in cell viability incubated for 48 hrs by MTT assay; type: toxicity, cell-based
PC-3 [5] = assay: Cytotoxicity against human PC-3 cells assessed as reduction in cell growth incubated for 48 hrs by MTT assay; type: functional, cell-based; settings: PC-3, 48 h
A549 [6] = assay: Antiproliferative activity against human A549 cells assessed as reduction in cell growth incubated for 72 hrs by MTT assay; type: functional, cell-based; settings: A549, 72 h
Fibroblast = assay: Antiproliferative activity against human Fibroblast cells; type: functional, cell-based
SCC-25 = assay: Antiproliferative activity against human SCC-25 cells; type: functional, cell-based
HepG2 [7] = assay: Antiproliferative activity against human HepG2 cells assessed as inhibition of cell growth measured after 72 hrs by MTT assay; type: functional, cell-based; settings: HepG2, 72 h
HL-60 = assay: Antiproliferative activity against human HL-60 cells; type: functional, cell-based
U-937 = assay: Antiproliferative activity against human U-937 cells; type: functional, cell-based
BT-474 = assay: Antiproliferative activity against human BT-474 cells assessed as inhibition of cell growth measured after 72 hrs by MTT assay; type: functional, cell-based; settings: BT-474, 72 h
K562 [8] = assay: Antiproliferative activity against human K562 cells assessed as reduction in cell viability incubated for 72 hrs by MTT assay; type: functional, cell-based; settings: K562, 72 h
PC-3 [9] = assay: Antiproliferative activity against human PC-3 cells assessed as reduction in cell viability incubated for 72 hrs by MTT assay; type: functional, cell-based; settings: PC-3, 72 h
HCT-116 = assay: Anticancer activity against human HCT-116 cells assessed as reduction in cell viability incubated for 48 hrs by MTT assay; type: functional, cell-based; settings: HCT-116, 48 h
MCF7 [10] = assay: Anticancer activity against human MCF7 cells assessed as reduction in cell viability incubated for 48 hrs by MTT assay; type: functional, cell-based; settings: MCF7, 48 h
MCF7 [11] = assay: Antiproliferative activity against human MCF7 cells assessed as reduction in cell viability incubated for 24 hrs by SRB assay; type: functional, cell-based; settings: MCF7, 24 h
SGC-7901 = assay: Antiproliferative activity against human SGC-7901 cells; type: functional, cell-based
HepG2 [12] = assay: Cytotoxicity against human HepG2 cells assessed as reduction in cell viability incubated for 48 hrs by MTT assay; type: functional, cell-based; settings: HepG2, 48 h
HT-29 = assay: Cytotoxicity against human HT-29 cells assessed as reduction in cell viability incubated for 48 hrs by MTT assay; type: functional, cell-based; settings: HT-29, 48 h
CCRF-CEM = assay: Antiproliferative activity against human CCRF-CEM cells; type: functional, cell-based
NCI-H1650 = assay: Antiproliferative activity against human NCI-H1650 cells assessed as reduction in cell growth incubated for 72 hrs by cell-titer glo assay; type: functional, cell-based; settings: NCI-H1650, 72 h
NCI-H1975 = assay: Antiproliferative activity against human NCI-H1975 cells assessed as reduction in cell growth incubated for 72 hrs by cell-titer glo assay; type: functional, cell-based; settings: NCI-H1975, 72 h
PC-3 [13] = assay: Cytotoxicity against human PC-3 cells assessed as reduction in cell growth incubated for 72 hrs by MTT assay; type: functional, cell-based; settings: PC-3, 72 h
K562 [14] = assay: Cytotoxicity against human K562 cells assessed as reduction in cell growth incubated for 72 hrs by MTT assay; type: functional, cell-based; settings: K562, 72 h
MCF7 [15] = assay: Cytotoxicity against human MCF7 cells assessed as reduction in cell growth incubated for 72 hrs by MTT assay; type: functional, cell-based; settings: MCF7, 72 h
[16] = Cytotoxicity against hTERT Lung Fibroblast cells assessed as reduction in cell growth incubated for 72 hrs by MTT assay; type: toxicity, cell-based; settings: human

COCCOc1cc2ncnc(Nc3cccc(-c4cn(-c5ccccc5/C=C/C(=O)c5cc(OC)c(OC)c(OC)c5)nn4)c3)c2cc1OCCOC
IC50 (Detroit 562): 0.673 µM

COc1cc([N+](=O)[O-])ccc1-n1cc(CN2C(=O)S/C(=C\c3cn(-c4ccccc4)nc3-c3ccccc3)C2=O)nn1
IC50 (MCF7 [1]): 0.43 µM

Cc1cc(=O)oc2cc(-n3cc(-c4cccc(-c5cn(-c6ccc7c(C)cc(=O)oc7c6)nn5)c4)nn3)ccc12
IC50 (MCF7 [2]): 0.3 µM

Cc1ccc(-n2ncc(CN3C(=O)C(F)(F)c4cc(Br)ccc43)n2)cc1Nc1nccc(-c2cccnc2)n1
IC50 (A549 [3]): 7.3 µM | IC50 at 48 h [4]: 18.6 µM

NC(=S)N/N=C1/C(=O)N(Cc2cn(CC(=O)c3ccc(Br)cc3)nn2)c2ccccc21
IC50 (PC-3 [5]): 15.3 µM

COc1ccc2c(-n3cc(-c4cc(OC)c(OC)c(OC)c4)nn3)c(C(=O)Nc3ccccc3)oc2c1
IC50 (A549 [6]): 0.57 µM

CC(C)CCC1=C(OCc2cn(-c3cccc(Cl)c3)nn2)C(=O)c2ccccc2C1=O
IC50 (Fibroblast): 210 µM | IC50 (SCC-25): 9.81 µM

Cc1ccc(/N=N/c2sc(N/N=C/c3cn(-c4ccccc4)nc3-c3nnn(-c4ccc(Br)cc4)c3C)nc2C)cc1
IC50 (HepG2 [7]): 2.3 µM

Nc1ccc(-c2nnc(Sc3nc4ccccc4n4c(Nc5ccccc5)nnc34)o2)cc1
IC50 (HL-60): 2.72 µM | IC50 (U-937): 2.65 µM

COc1ccc(Cn2cc(Cn3c(=O)c(-c4nc5ccccc5[nH]4)cc4ccccc43)nn2)c(OC)c1OC
IC50 (BT-474): 0.59 µM

O=C1C(=O)c2cc(Cn3cc(-c4ccccc4)nn3)oc2-c2ccccc21
IC50 (K562 [8]): 1.3 µM | IC50 (PC-3 [9]): 1.4 µM

CN(C)c1ccc(/C=N/c2nnc(S[C@@H]3O[C@H](CO)[C@@H](O)[C@H](O)[C@H]3O)s2)cc1
IC50 (HCT-116): 12.1 µM | IC50 (MCF7 [10]): 17.3 µM

CC(=O)OC[C@H]1OC(n2cc(COc3cccc4cccnc34)nn2)[C@@H](OC(C)=O)[C@H](OC(C)=O)[C@H]1OC(C)=O (some centres undefined)
IC50 (MCF7 [11]): 4.12 µM

CC1(C)CC[C@]23CC[C@]4(C)[C@H](CC[C@@H]5[C@@]6(C)Cc7nnn(CCCCC[P+](c8ccccc8)(c8ccccc8)c8ccccc8)c7C(C)(C)[C@@H]6CC[C@]54C)[C@H]2[C@H]1OC3
IC50 (SGC-7901): 1.05 µM

O=c1oc2ccccc2c(O)c1Sc1nnc(-c2ccc(Cl)cc2)o1
IC50 (HepG2 [12]): 3.46 µM | IC50 (HT-29): 18.6 µM

CN(C)c1ccc(/C=N/c2nnc(S[C@@H]3O[C@H](CO)[C@H](O)[C@H](O)[C@H]3O)s2)cc1
IC50 (HCT-116): 14.4 µM | IC50 (MCF7 [10]): 21.7 µM

CC1(C)CC[C@]23CC[C@]4(C)[C@H](CC[C@@H]5[C@@]6(C)CC[C@H](O)C(C)(C)[C@@H]6CC[C@]54C)[C@H]2[C@H]1OC3 [ALLOBETULIN]
IC50 (SGC-7901): 52.2 µM

COc1ccc(/C=C\c2cc(OC)c(OC)c(OC)c2)cc1O [COMBRETASTATIN A4]
IC50 (A549 [6]): 0.04 µM

COc1cc(/C=C/C(=O)CC(=O)/C=C/c2ccc(O)c(OC)c2)ccc1O [CURCUMIN]
IC50 (CCRF-CEM): 10.5 µM

C#Cc1cccc(Nc2ncnc3cc(OCCOC)c(OCCOC)cc23)c1 [ERLOTINIB]
IC50 (NCI-H1650): 40 µM | IC50 (NCI-H1975): 37 µM

Cc1ccc(NC(=O)c2ccc(CN3CCN(C)CC3)cc2)cc1Nc1nccc(-c2cccnc2)n1 [IMATINIB]
IC50 (A549 [3]): 65 µM | IC50 at 48 h [4]: 9.6 µM

Cc1coc2c1C(=O)C(=O)c1c-2ccc2c1CCCC2(C)C [TANSHINONE IIA]
IC50 (PC-3 [13]): 3.2 µM | IC50 (K562 [14]): 4.6 µM

C[C@H]1[C@H](C)CC[C@]2(C(=O)O)CC[C@]3(C)C(=CC[C@@H]4[C@@]5(C)CC[C@H](O)C(C)(C)[C@@H]5CC[C@]43C)[C@H]12 [URSOLIC ACID]
IC50 (MCF7 [15]): 25.1 µM | IC50 at 72 h [16]: 90.9 µM
